Two molecules from US20260001928A1 (CORTERIA PHARMACEUTICALS, priority 2022, published 2026) can be followed below.

Series [1] can be described thus: In vitro subcutaneous tissue supernatant (SCts) stability and metabolite identification, rat. In kind it is in vitro ADME. Also noted: remaining at 2 h: dose or concentration left out as unconfirmed. Conditions: male, Sprague Dawley; rat subcutaneous tissue supernatant (SCts), 37° C, 2 h.
In series [2] the target is T1, CFR1R receptor (Homo sapiens, UniProt P34998).
T1 construct: host or cells: CHO-K1 (clone 2)
T1 sequence (P34998 24-415): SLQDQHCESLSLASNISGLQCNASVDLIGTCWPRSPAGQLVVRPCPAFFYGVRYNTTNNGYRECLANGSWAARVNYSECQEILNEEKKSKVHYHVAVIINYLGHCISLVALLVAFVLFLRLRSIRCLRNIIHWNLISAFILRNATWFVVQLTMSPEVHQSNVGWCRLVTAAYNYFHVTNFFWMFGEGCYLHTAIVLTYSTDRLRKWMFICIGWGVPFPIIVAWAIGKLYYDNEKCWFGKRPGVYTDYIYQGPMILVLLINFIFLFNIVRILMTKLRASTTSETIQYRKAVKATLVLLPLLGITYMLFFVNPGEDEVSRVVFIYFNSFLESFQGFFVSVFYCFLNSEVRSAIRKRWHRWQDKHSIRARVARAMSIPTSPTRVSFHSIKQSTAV
As to the kind of experiment: Activity at anti-target CFR1R receptor, cAMP assay in CRF1R-overexpression CHO-K1 cells. Conditions: 100% = Sauvagine at 100 nM. In kind it is cell-based. In short, it runs like this: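 Uses frozen stocks of CHO-K1 clone 2 cells overexpressing human CRF1R, plated at 4000 cells/well final, with cAMP measured by the same protocol as the TeloHAEC line. Full-activation control: 100 nM Sauvagine.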

Series [3] is described as follows: Chemical stability in buffer (pH 7.4 / pH 4.5), % purity loss. Conditions: 100 mM phosphate buffer pH 7.4; 40° C. vs 5° C.; 14 or 28 days. In kind it is physicochemical. In outline:
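LC-UV gave % loss after 14 or 28 days of storage at 5 °C or 40 °C. Samples were diluted supernatants from compound incubated 1 h at room temperature at 10 mg/mL target, in 100 mM acetate pH 4.5 or 100 mM phosphate pH 7.4.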

Series [4] concerns Sprague Dawley rats. As to the kind of experiment: Effect on systolic blood pressure, telemetry in Sprague Dawley rats. Conditions: 0.1 mg/kg SC. In kind it is in vivo, rat. In short, it runs like this:
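Values are % change from a 1 h pre-dose baseline in systolic pressure, tracked by telemetry for up to 48 hours after a single 0.1 mg/kg subcutaneous dose. Rats (Sprague Dawley, n=2 per peptide) carried aortic catheters and recovered at least 10 days post-surgery; duration of action marks the last time point still showing an effect.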

A short description of series [5]: Pharmacokinetics in male Sprague Dawley rats after subcutaneous administration. In kind it is in vivo. The conditions noted are these: plasma, rat, SC, 0.1 mg/kg.
Series [6] has as its target T2, human CRF2a receptor (Homo sapiens, UniProt Q13324).
T2 construct: expressed in transfected cells; host or cells: TeloHEAC cells
T2 sequence (Q13324 1-411): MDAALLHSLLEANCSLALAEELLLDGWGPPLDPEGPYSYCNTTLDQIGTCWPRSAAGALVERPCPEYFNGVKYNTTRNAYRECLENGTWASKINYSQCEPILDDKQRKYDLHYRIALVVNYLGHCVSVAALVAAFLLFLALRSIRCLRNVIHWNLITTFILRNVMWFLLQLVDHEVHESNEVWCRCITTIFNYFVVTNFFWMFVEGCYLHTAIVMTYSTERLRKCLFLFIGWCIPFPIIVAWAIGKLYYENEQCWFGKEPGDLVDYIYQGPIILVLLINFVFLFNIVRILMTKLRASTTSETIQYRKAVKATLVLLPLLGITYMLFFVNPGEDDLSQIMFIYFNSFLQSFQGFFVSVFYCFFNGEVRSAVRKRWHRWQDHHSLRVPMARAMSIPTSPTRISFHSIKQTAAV
Put plainly: Activity at human CRF2a receptor, cAMP functional assay in TeloHEAC cells. In kind it is cell-based. Conditions: TeloHEAC cells stably expressing human CRF2a receptor, relative to urocortin 2 (100 nM = 100%). In short, it runs like this: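 cAMP accumulation was measured by HTRF 665/620 nm ratio after 30 min at 37° C compound exposure (16 twofold dilutions) of CRF2a-expressing TeloHEAC cells, 10000/well, in HEPES-buffered HBSS plus IBMX. Activity was normalised to urocortin 2 at 100 nM (100%), and EC50 was the concentration giving half-maximal activation.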

Series [7] is described as follows: Pharmacokinetics in male Sprague Dawley rats after subcutaneous administration. The conditions noted are these: plasma, rat. The format is in vivo.
Series [8] deals with T3, CRF1R (corticotropin-releasing factor receptor 1), on the CRF1R-overexpression CHO-K1 cell line clone 2 (UniProt P34998 24-415, limits assumed).
T3 sequence (looked up): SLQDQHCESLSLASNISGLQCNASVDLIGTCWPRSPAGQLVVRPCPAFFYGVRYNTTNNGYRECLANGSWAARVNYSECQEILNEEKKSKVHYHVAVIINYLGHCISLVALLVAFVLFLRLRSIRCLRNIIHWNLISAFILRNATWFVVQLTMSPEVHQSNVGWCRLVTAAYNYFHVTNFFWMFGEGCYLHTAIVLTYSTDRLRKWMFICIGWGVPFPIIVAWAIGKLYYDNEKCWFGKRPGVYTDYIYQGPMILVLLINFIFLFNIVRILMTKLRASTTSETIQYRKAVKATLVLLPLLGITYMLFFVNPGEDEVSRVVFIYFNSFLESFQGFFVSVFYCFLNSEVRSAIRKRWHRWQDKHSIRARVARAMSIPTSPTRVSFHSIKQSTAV
Put plainly: cell-based or functional assay.

*1 amine or outer side, *2 acyl side, *3 side chain or, on linkers, in order; H or OH if unused. Where a SMILES comes first, the peptide text is derived from it. Side-chain parts run from the residue outwards. [ ]: non-standard residue; d: D form. The star is where a group is joined. C20 diacid = O=C(O)CCCCCCCCCCCCCCCCCCC(=O)*; γGlu = O=C(O)[C@H](CCC(=O)[*:2])N[*:1]; Pentanoyl = CCCCC(=O)*; Aib = CC(C)(N)C(=O)O

On to `CCCCC(=O)N[C@H](C(=O)N[C@@H](CC(C)C)C(=O)N[C@@H](CO)C(=O)N[C@@H](CC(C)C)C(=O)N[C@@H](CC(=O)O)C(=O)N[C@@H](C(=O)N1CCC[C@H]1C(=O)N[C@H](C(=O)N[C@@H](CCCCN)C(=O)N[C@@H](CC(C)C)C(=O)N[C@@H](CCCCNC(=O)CC[C@H](NC(=O)CCCCCCCCCCCCCCCCCCC(=O)O)C(=O)O)C(=O)N[C@@H](CCCCN)C(=O)N[C@H](C(=O)N[C@@H](CC(C)C)C(=O)N[C@@H](CC(C)C)C(=O)N[C@@H](CCC(=O)O)C(=O)N[C@@H](CCC(N)=O)C(=O)N[C@@H](CCC(=O)O)C(=O)N[C@@H](CCCCN)C(=O)N[C@@H](CCC(N)=O)C(=O)N[C@@H](CCCCN)C(=O)N[C@@H](CCCCN)C(=O)N[C@@H](CCC(N)=O)C(=O)N[C@@H](CCCNC(=N)N)C(=O)N[C@@H](CCC(=O)O)C(=O)N[C@@H](CCC(N)=O)C(=O)N[C@@H](C)C(=O)N[C@@H](CCC(=O)O)C(=O)N[C@H](C(=O)N[C@@H](CC(N)=O)C(=O)NC(C)(C)C(=O)N[C@@H](CCC(N)=O)C(=O)N[C@H](C(=O)N[C@@H](CC(C)C)C(=O)N[C@@H](C)C(=O)N[C@@H](CCC(N)=O)C(=O)N[C@H](C(N)=O)C(C)C)[C@@H](C)CC)[C@@H](C)O)[C@@H](C)CC)[C@@H](C)CC)C(C)C)C(C)C` [compound 219] (Pentanoyl-VLSLD[dV]PIKLK([γGlu-C20 diacid])KILLEQEKQKKQREQAETN[Aib]QILAQV-NH2), for which the fraction remaining at 2 h in series [1] was 71%. The “Emax (% I)” value in series [2] came to 48 % I. In series [3], the “Buffer stability pH 7.4 % purity loss” value was −2.1/Not Tested %. Besides, the “Systolic blood pressure (Mean) % change from baseline, 8 h” value in series [4] (8 h, n=2) is −10%. The “Systolic blood pressure (Mean) % change from baseline, 12 h” value in series [4] (12 h, n=2) was −13%. Also, the “Systolic blood pressure (Mean) % change from baseline, 24 h” value in series [4] (24 h, n=2) was −10%. Also, the Duration of action in series [4] (last time point with an effect on BP still observed) was >24 h. Also, in series [5], the AUC(0-t) came out at 4520 ng·h/mL and the Cmax stood at 156 ng/mL. For the same molecule, in series [6], a half-maximal effect (EC50) was put at 0.16 nM. In series [7] (IV, 0.05 mg/kg), the AUC(0-t) is 5320 ng·h/mL and the half-life was 6 h. Also, in series [7] (SC, 0.1 mg/kg), the Tmax was 8 h and the half-life was 15 h.

B1: peptide of SEQ ID NO: 228 (peptide)
peptide: Pentanoyl-VLSLD[dV]PIGLK([γGlu-C20 diacid])KILLEQEKQKKQREQAETN[Aib]QILAQV-NH2
SMILES: CCCCC(=O)N[C@H](C(=O)N[C@@H](CC(C)C)C(=O)N[C@@H](CO)C(=O)N[C@@H](CC(C)C)C(=O)N[C@@H](CC(=O)O)C(=O)N[C@@H](C(=O)N1CCC[C@H]1C(=O)N[C@H](C(=O)NCC(=O)N[C@@H](CC(C)C)C(=O)N[C@@H](CCCCNC(=O)CC[C@H](NC(=O)CCCCCCCCCCCCCCCCCCC(=O)O)C(=O)O)C(=O)N[C@@H](CCCCN)C(=O)N[C@H](C(=O)N[C@@H](CC(C)C)C(=O)N[C@@H](CC(C)C)C(=O)N[C@@H](CCC(=O)O)C(=O)N[C@@H](CCC(N)=O)C(=O)N[C@@H](CCC(=O)O)C(=O)N[C@@H](CCCCN)C(=O)N[C@@H](CCC(N)=O)C(=O)N[C@@H](CCCCN)C(=O)N[C@@H](CCCCN)C(=O)N[C@@H](CCC(N)=O)C(=O)N[C@@H](CCCNC(=N)N)C(=O)N[C@@H](CCC(=O)O)C(=O)N[C@@H](CCC(N)=O)C(=O)N[C@@H](C)C(=O)N[C@@H](CCC(=O)O)C(=O)N[C@H](C(=O)N[C@@H](CC(N)=O)C(=O)NC(C)(C)C(=O)N[C@@H](CCC(N)=O)C(=O)N[C@H](C(=O)N[C@@H](CC(C)C)C(=O)N[C@@H](C)C(=O)N[C@@H](CCC(N)=O)C(=O)N[C@H](C(N)=O)C(C)C)[C@@H](C)CC)[C@@H](C)O)[C@@H](C)CC)[C@@H](C)CC)C(C)C)C(C)C
Consider B1, for which, in series [8], the “EC50 [nM] (cAMP, CRF1R-overexpression CHO-K1 cells)” value is 90.5 nM and the “Emax (% I) (cAMP, 100% = Sauvagine at 100 nM)” value was 62 % I.
